Measurements from article PMC4166607, “Distinct ETA Receptor Binding Mode of Macitentan As Determined by Site Directed Mutagenesis” (PLoS ONE, 2014).
Where two headings read alike, the source gives them in different places. Square brackets hold non-standard residues; d marks the D form. Peptide text beside a SMILES is read from it.

Experiments:
[1] = target: T1, ETA receptor (Homo sapiens, UniProt P25101); test: cell-based
[2] = target: T2, wildtype ETA receptor (Homo sapiens, UniProt P25101)
[3] = target: T3, ETA receptor variant R326Q (Homo sapiens, UniProt P25101, R326Q)
[4] = target: T4, ETA receptor variant L322A (Homo sapiens, UniProt P25101, L322A)
[5] = target: T5, ETA receptor variant K329M (Homo sapiens, UniProt P25101, K329M)
[6] = target: T6, ETA receptor variant D351N (Homo sapiens, UniProt P25101, D351N)
[7] = target: T7, ETA receptor variant I355A (Homo sapiens, UniProt P25101, I355A)
[8] = target: T8, ETA receptor variant Q165A (Homo sapiens, UniProt P25101, Q165A)
[9] = target: T2, wildtype ETA receptor; test: cell-based
[10] = target: T3, ETA receptor variant R326Q; test: cell-based
[11] = target: T4, ETA receptor variant L322A; test: cell-based
[12] = target: T5, ETA receptor variant K329M; test: cell-based
[13] = target: T6, ETA receptor variant D351N; test: cell-based
[14] = target: T7, ETA receptor variant I355A; test: cell-based
[15] = target: T8, ETA receptor variant Q165A; test: cell-based
[16] = target: T1, ETA receptor; conditions: cited from earlier work; for ETA receptor occupancy half-life (t1/2): PASMC
[17] = cited from earlier work
[18] = cited from earlier work; remark: listed apart in the source
[19] = target: T1, ETA receptor; conditions: PASMC, 5 µM ET-1, 20 min stimulation, maximal ERA concentration 1 µM, arithmetic means, normalized to macitentan analogs 1 or 8 (100%)
[20] = physchem
[21] = pKa1, no method or reference printed
[22] = pKa2, no method or reference printed

T4 sequence (P25101 21-427 L322A): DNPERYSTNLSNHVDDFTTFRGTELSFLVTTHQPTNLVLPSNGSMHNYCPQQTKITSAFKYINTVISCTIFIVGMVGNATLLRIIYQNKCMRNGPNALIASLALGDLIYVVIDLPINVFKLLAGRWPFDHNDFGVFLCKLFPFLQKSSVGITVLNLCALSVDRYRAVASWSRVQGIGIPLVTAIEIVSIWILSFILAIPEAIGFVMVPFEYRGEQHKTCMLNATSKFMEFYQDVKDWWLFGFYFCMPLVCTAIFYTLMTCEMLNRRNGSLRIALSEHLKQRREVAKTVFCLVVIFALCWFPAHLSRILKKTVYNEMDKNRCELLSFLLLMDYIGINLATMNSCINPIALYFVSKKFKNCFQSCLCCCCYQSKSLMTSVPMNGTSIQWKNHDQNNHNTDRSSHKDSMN
T5 sequence (P25101 21-427 K329M): as the sequence (P25101 21-427 L322A) above, with A302L, K309M counted along it
T1 sequence (P25101 21-427): as the sequence (P25101 21-427 L322A) above, with A302L counted along it
T2 sequence (P25101 21-427): as the sequence (P25101 21-427 L322A) above, with A302L counted along it
T6 sequence (P25101 21-427 D351N): as the sequence (P25101 21-427 L322A) above, with A302L, D331N counted along it
T7 sequence (P25101 21-427 I355A): as the sequence (P25101 21-427 L322A) above, with A302L, I335A counted along it
T3 sequence (P25101 21-427 R326Q): as the sequence (P25101 21-427 L322A) above, with A302L, R306Q counted along it
T8 sequence (P25101 21-427 Q165A): as the sequence (P25101 21-427 L322A) above, with Q145A, A302L counted along it

| Structure (SMILES) | IC50 shift versus wildtype (fold) [2] | IC50 shift versus wildtype (fold) [3] | IC50 shift versus wildtype (fold) [4] | IC50 shift versus wildtype (fold) [7] | IC50 [1] | IC50 [9] | IC50 [10] | IC50 [11] | IC50 [14] | further results |
| --- | --- | --- | --- | --- | --- | --- | --- | --- | --- | --- |
| CC(C)C[C@@H]1NC(=O)[C@@H](C(C)C)NC(=O)[C@@H]2CCCN2C(=O)[C@@H](CC(=O)O)NC(=O)[C@@H](Cc2c[nH]c3ccccc23)NC1=O [BQ123] (cyclo(L[dW][dD]P[dV])) |  |  |  |  |  |  |  |  |  | IC50 ([1]; log IC50 (M), calcium flux, PASMC, 4 nM–[…] nM ET-1 (EC80)): 1.26e-09 M |
| COC(c1ccccc1)(c1ccccc1)[C@H](Oc1nc(C)cc(C)n1)C(=O)O [ambrisentan] | 1.0 fold | 317 fold | 15 fold | 2.9 fold | 4.4e-10 M | 2.8 nM | 887 nM | 41 nM | 8.1 nM | IC50 shift versus wildtype (fold) [5]: 0.2 fold; IC50 shift versus wildtype (fold) [6]: 1.6 fold; IC50 shift versus wildtype (fold) [8]: 1129 fold; IC50 [12]: 0.58 nM; IC50 [13]: 4.5 nM; IC50 [15]: 3160 nM; ETA receptor occupancy half-life (t1/2) [16]: 1 min; pKa [17]: 3.5; logD [18]: −0.4 |
| COc1ccccc1Oc1c(NS(=O)(=O)c2ccc(C(C)(C)C)cc2)nc(-c2ncccn2)nc1OCCO [bosentan] |  |  |  |  |  |  |  |  |  | Insurmountability (%) [19]: 0%; pKa [17]: 5.1; logD [18]: 1.3 |
| COc1ccccc1Oc1c(NS(=O)(=O)c2ccc(C)cn2)nc(-c2ccnc(-c3nnn[nH]3)c2)nc1OCCO [clazosentan] | 1 fold | 26 fold | 1.2 fold | 32 fold | 3.3e-11 M | 0.085 nM | 2.2 nM | 0.1 nM | 2.7 nM | pKa [20, 21]: 4.5; pKa [20, 22]: 3.3 |
| CCCCNS(=O)(=O)Nc1ncnc(OCCOc2ncc(Br)cn2)c1-c1ccc(Br)cc1 [macitentan analog 1] | 1 fold | 7.1 fold | 188 fold | 0.3 fold | 9.3e-11 M | 0.17 nM | 1.2 nM | 32 nM | 0.047 nM |  |
| CCNS(=O)(=O)Nc1ncnc(OCCOc2ncc(Br)cn2)c1-c1ccc(Br)cc1 [macitentan analog 2] | 1 fold | 7.1 fold | 228 fold | 0.8 fold | 5.1e-10 M | 4.8 nM | 34 nM | 1090 nM | 3.9 nM |  |
| O=S(=O)(NCc1ccccc1)Nc1ncnc(OCCOc2ncc(Br)cn2)c1-c1ccc(Br)cc1 [macitentan analog 3] |  |  |  |  | 8.5e-11 M |  |  |  |  |  |
| CCS(=O)(=O)Nc1ncnc(OCCOc2ncc(Br)cn2)c1-c1ccc(Br)cc1 [macitentan analog 4] |  |  |  |  | 1.2e-09 M |  |  |  |  |  |
| CCCS(=O)(=O)Nc1ncnc(OCCOc2ncc(Br)cn2)c1-c1ccc(Br)cc1 [macitentan analog 5] |  |  |  |  | 3.8e-10 M |  |  |  |  |  |
| CCCCS(=O)(=O)Nc1ncnc(OCCOc2ncc(Br)cn2)c1-c1ccc(Br)cc1 [macitentan analog 6] |  |  |  |  | 6.2e-10 M |  |  |  |  |  |
| CCCNS(=O)(=O)Nc1ncnc(OCCOc2ncc(OC)cn2)c1-c1ccc(Br)cc1 [macitentan analog 7] | 1 fold | 6.5 fold | 66 fold | 1.1 fold | 3.9e-09 M | 41 nM | 268 nM | 2690 nM | 45 nM |  |
| CCCNS(=O)(=O)Nc1ncnc(OCCOc2ncc(I)cn2)c1-c1ccc(Br)cc1 [macitentan analog 8] |  |  |  |  | 6.5e-11 M |  |  |  |  |  |
| CCCNS(=O)(=O)Nc1ncnc(OCCOc2ncc(Br)cn2)c1-c1ccc(Cl)cc1 [macitentan analog 9] | 1 fold | 3.3 fold | 136 fold | 0.6 fold | 4.7e-10 M | 14 nM | 46 nM | 1900 nM | 8.6 nM |  |
| CCCNS(=O)(=O)Nc1ncnc(OCCOc2ccc(Br)cc2)c1-c1ccc(Br)cc1 [macitentan analog 10] |  |  |  |  | 4.31e-07 M |  |  |  |  |  |
| CCCNS(=O)(=O)Nc1ncnc(OCCCOc2ncc(Br)cn2)c1-c1ccc(Br)cc1 [macitentan analog 11] |  |  |  |  | 3.5e-08 M |  |  |  |  |  |
| CCCNS(=O)(=O)Nc1ncnc(OCCCCOc2ncc(Br)cn2)c1-c1ccc(Br)cc1 [macitentan analog 12] |  |  |  |  | 2.55e-07 M |  |  |  |  |  |
| CCCNS(=O)(=O)Nc1ncnc(OCCOc2ncc(Br)cn2)c1-c1ccc(Br)cc1 [macitentan, N-[5-(4-bromophenyl)-6-[2-[(5-bromo-2-pyrimidinyl)oxy]ethoxy]-4-pyrimidinyl]-N′-propylsulfamide] | 1.0 fold | 6.3 fold | 148 fold | 0.9 fold | 1.7e-10 M | 1.2 nM | 7.6 nM | 178 nM | 1.1 nM | Insurmountability (%) [19]: 64%; IC50 shift versus wildtype (fold) [5]: 0.5 fold; IC50 shift versus wildtype (fold) [6]: 1.2 fold; IC50 shift versus wildtype (fold) [8]: 174 fold; IC50 [12]: 0.58 nM; IC50 [13]: 1.5 nM; IC50 [15]: 209 nM; ETA receptor occupancy half-life (t1/2) [16]: ~17 min; increase of receptor occupancy half-life compared to ambrisentan and bosentan ([16]; human primary PASMC): ~20 fold; logD [18]: 2.9 |
| COc1ccccc1Oc1c(NS(=O)(=O)c2ccc(C(C)C)cn2)nc(-c2ccnc(-c3nnn[nH]3)c2)nc1OCCO [tezosentan] | 1 fold | 50 fold | 2.0 fold | 54 fold | 5.2e-11 M | 0.26 nM | 13 nM | 0.53 nM | 14 nM | pKa [20, 21]: 4.4; pKa [20, 22]: 4.1 |
